Entries after “also recorded” stand apart in the source; their conditions may differ.
Columns and labels:
[1] = cited from earlier work
WM858 Dual-Glo cells = assay: in vitro cell toxicity in the SPP1 screen; type: cell-based; conditions: in the SPP1 promoter screen
Excerpt: (§1) SPP1 is a pro-inflammatory inducer of skin fibrosis and skin aging. […] To screen for transcriptional silencers of SPP1 expression, cells with high endogenous SPP1 expression (e.g., melanoma cells) were identified. Then, the endogenous SPP1 promoter was tagged in melanoma cells with a dual luciferase reporter to create Dual-Glo cells using a genome editing approach. Firefly luciferase was introduced to assay SPP1 promoter activity; renilla luciferase was coupled to the CMV promoter as a loading control (FIG. 1A).

SPP1 promoter = assay: Dual-Glo luciferase reporter screen of SPP1 promoter activity (LOPAC library); type: cell-based
Excerpt: (A) Schematic representation of the DuoGlo construct used for high throughput compound screening. (B-C) SPP1 promoter activity after exposure of WM858 Dual-Glo cells to Vitamin D (B) or retinoid (C).
as §1

p16 = p16 expression staining in rabbit ear skin after topical treatment; type: in vivo; conditions: 2% topical pentamidine versus base only, four weeks, n=6 per group
Method: (§2) Female New Zealand white rabbit ears were used. In total, twelve linear wounds were created using minimally invasive vascular ligation in auricular blood vessels to create ischemic hypertrophic scars. Following surgical ligation, linear wounds were treated with either osteopontin inhibitor 2% topical pentamidine (n=6; left ear) or base only (n=6; right ear) for four weeks. After the treatment period, samples were fixed in 10% formaldehyde, embedded in paraffin and stained for p16 expression.

[2] = system: hypertrophic scar formation; assay: hypertrophic scar formation, ischemic rabbit ear model, topical treatment; type: in vivo
Method: Topical pentamidine was evaluated using a hypertrophic scar formation rabbit ear model. Briefly, surgical ligation of leporine auricular vessels induced an ischemic landscape for hypertrophic scar production. Specifically, a cranial artery and vein were ligated; the caudal artery and vein were preserved; and the central artery was ligated, while the central vein was preserved in the rabbit ear (FIG. 2).
All surgeries were conducted in a disinfected area designated for surgical procedures and equipped with necessary lighting and equipment. Briefly, rabbits received intramuscular buprenorphine and enrofloxicin (5-10 mg/kg) prior to the surgery. Anesthesia was induced by a mixture of ketamine and intramuscular xylazine and monitored by medical sciences support staff. Study staff performed surgeries using sterile instruments, drapes, gloves, and gown. Following vascular ligation, one linear full-thickness skin wound was created on the ventral side of each ear with a surgical blade. The skin and perichondrium were removed. The base on which granulation and epithelialization take place was the cartilage. The edges of the wound were closed with 4-0 Nylon sutures.
Following ischemic wounding, the relative ischemia created in the ear at time of surgery and time of sacrifice was assessed with a fluorescent light assisted angiography (Spy Elite, LifeCell). Perfusion of the ear was assessed using the Spy Elite system following intravenous administration of indocyanine green, which utilizes infrared light to detect the dye (FIG. 3).
Following vascular ligation and linear wounding, a sterile occlusive dressing (TegaDerm, 3M) was used to cover the wound site. Animals were allowed to recover for three days without wound disturbance. After 72 hours, the dressing was changed, and the treatment was initiated. […] Daily dressing changes occurred until day 28. About 1/8 teaspoon ([…]) of the treatment agent was applied with each dressing change. Rabbits were trained on the animal snuggler for ease during treatment application.
Animals were monitored daily for any signs of postoperative discomfort, wound infection, weight loss, loss of appetite, and loss of contracture fixation. Any complications such as cage sores, wound infections, weight loss, or wound dehiscence were reviewed with the veterinarian and managed in a way designed to minimize discomfort or suffering. […] Six rabbits were used in this study. For three rabbits, the left ear received Treatment Group 1 (n=3), and the right ear received Treatment Group 2 (n=3). […] One rabbit was excluded from the study due to wound infection:
as §2
Female New Zealand white rabbits ears were used. In total, twelve linear wounds were created using minimally invasive vascular ligation in auricular blood vessels to create ischemic hypertrophic scars. Following surgical ligation, linear wounds were treated with the following dose titration: 0.5% pentamidine (n=3); 1% pentamidine (n=3); 2% pentamidine (n=3); or 5% pentamidine (n=3). […]

N=C(N)c1ccc(OCCCCCOc2ccc(C(=N)N)cc2)cc1 [Pentamidine isethionate, 4,4-[1,5-pentanediylbis(oxy)]bis-benzenecarboximidamid]
solubility in acetone ([1]; acetone): insoluble
solubility in alcohol ([1]; alcohol): soluble
solubility in chloroform ([1]; chloroform): insoluble
solubility in ether ([1]; ether): insoluble
solubility in glycerin ([1]; glycerin): soluble
solubility in water ([1]; water): soluble

N=C(N)c1ccc(OCCCCCOc2ccc(C(=N)N)cc2)cc1 [pentamidine, 4,4′-[pentane-1,5-diylbis(oxy)]dibenzenecarboximidamide]
in vitro cell toxicity (WM858 Dual-Glo cells): minimal in vitro cell toxicity
inhibition of SPP1 promoter activity (SPP1 promoter; Dual-Glo melanoma cells, firefly luciferase at the SPP1 promoter, renilla/CMV as loading control): greater than 80%
p16 expression levels in dermal and epidermal regions (p16): decreased p16 levels; also recorded: reduced p16 expression levels
hypertrophic scar formation ([2]; 0.5% pentamidine, n=3): no response to minimal reduction
hypertrophic scar formation ([2]; 1% pentamidine, n=3): no response to minimal reduction
hypertrophic scar formation ([2]; 2% pentamidine in Pracasil-Plus base, daily, four weeks): Minimal hypertrophic scaring; also recorded: significantly inhibited hypertrophic scar formation; also recorded: observable scar reduction
re-epithelization of the wound ([2]; 2% pentamidine, n=3): Effective re-epithelization
wound outcome at high dose ([2]; 5% pentamidine, n=3): non-healing wound and abscess formation

Vitamin D
effect on SPP1 promoter activity (SPP1 promoter; WM858 Dual-Glo cells): activated

— US20200038348A1, “METHODS AND MATERIALS FOR REDUCING SCAR FORMATION DURING WOUND HEALING” (Mayo Foundation for Medical Education and Research, priority 2017, published 2020)
